According to US20200163984A1, “USE OF ISOVALERYL SPIRAMYCIN I, II AND/OR III IN MANUFACTURING MEDICAMENT FOR TREATING AND/OR PREVENTING TUMOR, AND MEDICAMENT” (SHENYANG FUYANG PHARMACEUTICAL TECHNOLOGY CO., LTD., priority 2017, published 2020):

Legend:
Conditions in all cases: for Tumor Volume (mm3) (d 1): d1
[1] = test system: transplanted tumor of human renal clear cell adenocarcinoma cell 786-O; test: 786-O transplanted tumor in nude mice
Method: (§1) 786-O cells in a logarithmic growth phase were taken and subjected to a trypan blue exclusion experiment showing that the cell viability was more than 95%, then the cells were subjected to trypsinization, centrifugation, and supernatant removal. Then cell concentration was adjusted to 1×10^7/ml with matrigel, then each nude mouse was inoculated subcutaneously with 0.2 ml of cells at its right armpit and recorded as the first day of inoculation. When the tumor grows to be greater than or equal to 100 mm^3, the mice were randomly divided into 11 groups with 6 mice in each group: a model group, a cyclophosphamide group, isovaleryl spiramycin I groups with doses of 25, 50 and 100 mg/kg, isovaleryl spiramycin II groups with doses of 25, 50 and 100 mg/kg, and isovaleryl spiramycin III groups with doses of 25, 50 and 100 mg/kg. Each group was continuously administered intragastrically for 30 days with a dose of 20 ml/kg. The mice were sacrificed the next day after drug withdrawal and the indicators were tested. The long diameter and short diameter of the tumor, and the body weight of each mouse were recorded every 3 days from drug administration to nude mouse sacrifice.
(§2) The body weight of the nude mice and the long diameter (a) and short diameter (b) of the transplanted tumor were measured every 3 days, and the tumor volume (v), relative tumor volume (RTV) and relative tumor proliferation rate (T/C) are calculated respectively according to the following formulas, wherein V=a×b^2/2; RTV=V/V0 (V0 is the tumor volume before administration, V is the tumor volume before sacrifice), and T/C (%)=treatment group RTV/model control group RTV×100%.
(§3) Each mouse was weighed and sacrificed. After the tumor was completely stripped off from the body of the mouse, the non-tumor tissues such as blood stains and fat were removed to weigh the tumor and calculate the tumor growth inhibition rate. The average tumor weight of each group of mice is used as an indicator of efficacy. Tumor growth inhibition rate (%)=(1−the average tumor weight of the treatment group/the average tumor weight of the model group)×100%.

[2] = test system: transplanted tumor of human glioma cell U251; test: U251 transplanted tumor in nude mice
Method: as §1, with “U251” for “786-O”
as §2, §3

[3] = test system: transplanted tumor of human non-small cell lung cancer cell A549; test: A549 transplanted tumor in nude mice
Method: as §1, with “A549” for “786-O”
as §2, §3

[4] = 786-O, high dose (100 mg/kg in method) i.g. 30 days
[5] = 786-O, low dose (25 mg/kg in method) i.g. 30 days
[6] = 786-O, medium dose (50 mg/kg in method) i.g. 30 days
[7] = U251, high dose (100 mg/kg in method) i.g. 30 days
[8] = U251, low dose (25 mg/kg in method) i.g. 30 days
[9] = U251, medium dose (50 mg/kg in method) i.g. 30 days
[10] = A549, high dose (100 mg/kg in method) i.g. 30 days
[11] = A549, low dose (25 mg/kg in method) i.g. 30 days
[12] = A549, medium dose (50 mg/kg in method) i.g. 30 days

COC1C(OC(C)=O)CC(=O)OC(C)CC=CC=CC(OC2CCC(N(C)C)C(C)O2)C(C)CC(CC=O)C1OC1OC(C)C(OC2CC(C)(O)C(OC(=O)CC(C)C)C(C)O2)C(N(C)C)C1O (stereo not drawn) [Isovaleryl spiramycin II, isovaleryl spiramycin II]
Inhibition Rate (%) ([1]; 786-O nude mice, 25 mg/kg): 19.69% | Relative Tumor Proliferation Rate (T/C) ([1]; 786-O nude mice, 25 mg/kg): 76.92% | Relative Tumor Volume (RTV) ([1]; 786-O nude mice, 25 mg/kg): 14.62 ± 1.93 | Tumor Weight ([1]; 786-O nude mice, 25 mg/kg): 1.72 ± 0.27 g | Tumor Volume (mm3) (d 1) ([1]; 786-O nude mice, 25 mg/kg): 96.82 ± 8.52 mm3 | Tumor Volume (mm3) (d30) ([1]; 786-O nude mice, 25 mg/kg): 1415.80 ± 201.11 mm3 | Inhibition Rate (%) ([1]; 786-O nude mice, 50 mg/kg): 41.09% | Relative Tumor Proliferation Rate (T/C) ([1]; 786-O nude mice, 50 mg/kg): 53.61% | Relative Tumor Volume (RTV) ([1]; 786-O nude mice, 50 mg/kg): 10.19 ± 2.62 | Tumor Weight ([1]; 786-O nude mice, 50 mg/kg): 1.26 ± 0.31 g | Tumor Volume (mm3) (d 1) ([1]; 786-O nude mice, 50 mg/kg): 96.82 ± 8.52 mm3 | Tumor Volume (mm3) (d30) ([1]; 786-O nude mice, 50 mg/kg): 982.68 ± 265.02 mm3 | Inhibition Rate (%) ([1]; 786-O nude mice, 100 mg/kg): 60.00% | Relative Tumor Proliferation Rate (T/C) ([1]; 786-O nude mice, 100 mg/kg): 35.74% | Relative Tumor Volume (RTV) ([1]; 786-O nude mice, 100 mg/kg): 6.79 ± 1.65 | Tumor Weight ([1]; 786-O nude mice, 100 mg/kg): 0.85 ± 0.16 g | Tumor Volume (mm3) (d 1) ([1]; 786-O nude mice, 100 mg/kg): 103.26 ± 9.71 mm3 | Tumor Volume (mm3) (d30) ([1]; 786-O nude mice, 100 mg/kg): 701.57 ± 127.91 mm3 | Relative Tumor Proliferation Rate (T/C) [1, 4]: 35.74% | tumor growth inhibition rate [1, 4]: 60.00% | Relative Tumor Proliferation Rate (T/C) [1, 5]: 76.92% | tumor growth inhibition rate [1, 5]: 19.69% | tumor volume and relative tumor volume compared with the model group ([1]; 786-O, low, medium and high doses, P<0.05): significantly lower | Relative Tumor Proliferation Rate (T/C) [1, 6]: 53.61% | tumor growth inhibition rate [1, 6]: 41.09% | mouse weight compared with the model group ([1]; mouse, in vivo): no significant changes | Body Weight (g) (d1) ([1]; mouse, in vivo, 25 mg/kg): 22.05 ± 0.71 g | Body Weight (g) (d30) ([1]; mouse, in vivo, 25 mg/kg): 23.33 ± 0.54 g | Body Weight (g) (d1) ([1]; mouse, in vivo, 50 mg/kg): 22.42 ± 0.54 g | Body Weight (g) (d30) ([1]; mouse, in vivo, 50 mg/kg): 23.42 ± 0.50 g | Body Weight (g) (d1) ([1]; mouse, in vivo, 100 mg/kg): 22.33 ± 0.41 g | Body Weight (g) (d30) ([1]; mouse, in vivo, 100 mg/kg): 23.45 ± 0.91 g | Relative Tumor Proliferation Rate (T/C) [2, 7]: 43.26% | tumor growth inhibition rate [2, 7]: 40.26% | Relative Tumor Proliferation Rate (T/C) [2, 8]: 76.14% | tumor growth inhibition rate [2, 8]: 10.91% | tumor volume and relative tumor volume compared with the model group ([2]; U251, low, medium and high doses, P<0.05): significantly lower | Relative Tumor Proliferation Rate (T/C) [2, 9]: 51.88% | tumor growth inhibition rate [2, 9]: 15.81% | Inhibition Rate (%) ([2]; U251 nude mice, 25 mg/kg): 10.91% | Relative Tumor Proliferation Rate (T/C) ([2]; U251 nude mice, 25 mg/kg): 76.14% | Relative Tumor Volume (RTV) ([2]; U251 nude mice, 25 mg/kg): 14.73 ± 1.33 | Tumor Weight ([2]; U251 nude mice, 25 mg/kg): 1.23 ± 0.12 g | Tumor Volume (mm3) (d 1) ([2]; U251 nude mice, 25 mg/kg): 125.90 ± 11.45 mm3 | Tumor Volume (mm3) (d30) ([2]; U251 nude mice, 25 mg/kg): 1596.45 ± 267.65 mm3 | Inhibition Rate (%) ([2]; U251 nude mice, 50 mg/kg): 15.81% | Relative Tumor Proliferation Rate (T/C) ([2]; U251 nude mice, 50 mg/kg): 51.88% | Relative Tumor Volume (RTV) ([2]; U251 nude mice, 50 mg/kg): 14.31 ± 0.98 | Tumor Weight ([2]; U251 nude mice, 50 mg/kg): 1.16 ± 0.10 g | Tumor Volume (mm3) (d 1) ([2]; U251 nude mice, 50 mg/kg): 118.33 ± 11.65 mm3 | Tumor Volume (mm3) (d30) ([2]; U251 nude mice, 50 mg/kg): 1030.10 ± 207.19 mm3 | Inhibition Rate (%) ([2]; U251 nude mice, 100 mg/kg): 40.26% | Relative Tumor Proliferation Rate (T/C) ([2]; U251 nude mice, 100 mg/kg): 43.26% | Relative Tumor Volume (RTV) ([2]; U251 nude mice, 100 mg/kg): 12.88 ± 1.54 | Tumor Weight ([2]; U251 nude mice, 100 mg/kg): 0.83 ± 0.12 g | Tumor Volume (mm3) (d 1) ([2]; U251 nude mice, 100 mg/kg): 122.74 ± 10.75 mm3 | Tumor Volume (mm3) (d30) ([2]; U251 nude mice, 100 mg/kg): 890.78 ± 225.34 mm3 | mouse weight compared with the model group ([2]; mouse, in vivo): no significant changes | Body Weight (g) (d1) ([2]; mouse, in vivo, 25 mg/kg): 20.77 ± 0.65 g | Body Weight (g) (d30) ([2]; mouse, in vivo, 25 mg/kg): 20.85 ± 0.79 g | Body Weight (g) (d1) ([2]; mouse, in vivo, 50 mg/kg): 21.25 ± 0.46 g | Body Weight (g) (d30) ([2]; mouse, in vivo, 50 mg/kg): 20.86 ± 0.43 g | Body Weight (g) (d1) ([2]; mouse, in vivo, 100 mg/kg): 20.92 ± 0.82 g | Body Weight (g) (d30) ([2]; mouse, in vivo, 100 mg/kg): 21.47 ± 0.70 g | Relative Tumor Proliferation Rate (T/C) [3, 10]: 39.42% | tumor growth inhibition rate [3, 10]: 60.19% | Relative Tumor Proliferation Rate (T/C) [3, 11]: 83.41% | tumor growth inhibition rate [3, 11]: 20.73% | tumor volume and relative tumor volume compared with the model group ([3]; A549, low, medium and high doses, P<0.05): significantly lower | Relative Tumor Proliferation Rate (T/C) [3, 12]: 58.75% | tumor growth inhibition rate [3, 12]: 31.87% | Inhibition Rate (%) ([3]; A549 nude mice, 25 mg/kg): 20.73% | Relative Tumor Proliferation Rate (T/C) ([3]; A549 nude mice, 25 mg/kg): 83.41% | Relative Tumor Volume (RTV) ([3]; A549 nude mice, 25 mg/kg): 13.54 ± 1.07 | Tumor Weight ([3]; A549 nude mice, 25 mg/kg): 1.90 ± 0.31 g | Tumor Volume (mm3) (d 1) ([3]; A549 nude mice, 25 mg/kg): 119.67 ± 7.25 mm3 | Tumor Volume (mm3) (d30) ([3]; A549 nude mice, 25 mg/kg): 1614.91 ± 65.26 mm3 | Inhibition Rate (%) ([3]; A549 nude mice, 50 mg/kg): 31.87% | Relative Tumor Proliferation Rate (T/C) ([3]; A549 nude mice, 50 mg/kg): 58.75% | Relative Tumor Volume (RTV) ([3]; A549 nude mice, 50 mg/kg): 9.54 ± 2.62 | Tumor Weight ([3]; A549 nude mice, 50 mg/kg): 1.63 ± 0.32 g | Tumor Volume (mm3) (d 1) ([3]; A549 nude mice, 50 mg/kg): 117.96 ± 4.88 mm3 | Tumor Volume (mm3) (d30) ([3]; A549 nude mice, 50 mg/kg): 1129.10 ± 326.54 mm3 | Inhibition Rate (%) ([3]; A549 nude mice, 100 mg/kg): 60.19% | Relative Tumor Proliferation Rate (T/C) ([3]; A549 nude mice, 100 mg/kg): 47.94% | Relative Tumor Volume (RTV) ([3]; A549 nude mice, 100 mg/kg): 7.78 ± 2.03 | Tumor Weight ([3]; A549 nude mice, 100 mg/kg): 0.95 ± 0.42 g | Tumor Volume (mm3) (d 1) ([3]; A549 nude mice, 100 mg/kg): 116.96 ± 6.56 mm3 | Tumor Volume (mm3) (d30) ([3]; A549 nude mice, 100 mg/kg): 917.10 ± 270.86 mm3 | mouse weight compared with the model group ([3]; mouse, in vivo): no significant changes | Body Weight (g) (d1) ([3]; mouse, in vivo, 25 mg/kg): 20.91 ± 1.07 g | Body Weight (g) (d30) ([3]; mouse, in vivo, 25 mg/kg): 21.32 ± 1.88 g | Body Weight (g) (d1) ([3]; mouse, in vivo, 50 mg/kg): 20.03 ± 1.88 g | Body Weight (g) (d30) ([3]; mouse, in vivo, 50 mg/kg): 12.92 ± 1.68 g | Body Weight (g) (d1) ([3]; mouse, in vivo, 100 mg/kg): 21.71 ± 1.94 g | Body Weight (g) (d30) ([3]; mouse, in vivo, 100 mg/kg): 12.42 ± 1.37 g
